Key:
Parameters in all cases: scale not given here
[1] = system: TRZAWR Wheat, Winter, cv Riband; test: Postemergence herbicidal evaluation, TRZAWR; format: in vivo, Triticum aestivum; conditions: postemergence spray, rated about two-three weeks after treatment
Outline: (§1)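 For this test, compound in an 80/20 acetone/water vehicle with 1.0% seed oil was sprayed over two-week-old seedlings at about 0.006 to 0.400 kg per hectare. Injury was assessed visually two to three weeks on.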

ABUTH Velvetleaf [2] = test: Postemergence herbicidal evaluation, ABUTH; format: in vivo, Abutilon theophrasti, Medic.; conditions: postemergence spray, rated about two-three weeks after treatment
Outline: as §1

GLXMAW Soybean, Williams [3] = test: Postemergence herbicidal evaluation, GLXMAW; format: in vivo, Glycine max, (L.) Merr. cv Williams; conditions: postemergence spray, rated about two-three weeks after treatment
Outline: as §1

[4] = system: TRZAWR Wheat, Winter, cv Riband; test: Preemergence herbicidal evaluation, TRZAWR; format: in vivo, Triticum aestivum; conditions: preemergence
Outline: (§2)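 Visual ratings were taken four to five weeks after application. Before that, cups sown with seed in potting soil received a spray of compound dissolved in aqueous acetone, equivalent to about 0.013 to 0.800 kg/ha, and stood on greenhouse benches under conventional care.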

GALAP Galium [5] = test: Preemergence herbicidal evaluation, GALAP; format: in vivo, Galium aparine; conditions: preemergence
Outline: as §2

GLXMAW Soybean, Williams [6] = test: Preemergence herbicidal evaluation, GLXMAW; format: in vivo, Glycine max, (L.) Merr. cv Williams; conditions: preemergence
Outline: as §2

ZEAMX Corn, Field [7] = test: Preemergence herbicidal evaluation, ZEAMX; format: in vivo, Zea mays, L. (Sammel-Bezeichnung); conditions: preemergence
Outline: as §2

[8] = system: CHEAL Lambsquarters, Common; test: Preemergence herbicidal evaluation, CHEAL; format: in vivo, Chenopodium album, L.; conditions: preemergence
Outline: as §2

SETVI Foxtail, Green [9] = test: Preemergence herbicidal evaluation, SETVI; format: in vivo, Setaria viridis, (L.) Beau; conditions: preemergence
Outline: as §2

ORYSAT Rice, Tebonnet [10] = test: Preemergence herbicidal evaluation, ORYSAT; format: in vivo, Oryza sativa, (L.); conditions: preemergence
Outline: as §2

AMBEL Ragweed, Common [11] = test: Postemergence herbicidal evaluation, AMBEL; format: in vivo, Ambrosia artemisifolia, L.; conditions: postemergence spray, rated about two-three weeks after treatment
Outline: as §1

CASOB Sicklepod [12] = test: Preemergence herbicidal evaluation, CASOB; format: in vivo, Cassia obtusifolia, L.; conditions: preemergence
Outline: as §2

GALAP Galium [13] = test: Postemergence herbicidal evaluation, GALAP; format: in vivo, Galium aparine; conditions: postemergence spray, rated about two-three weeks after treatment
Outline: as §1

SETVI Foxtail, Green [14] = test: Postemergence herbicidal evaluation, SETVI; format: in vivo, Setaria viridis, (L.) Beau; conditions: postemergence spray, rated about two-three weeks after treatment
Outline: as §1

ECHOG Barnyardgrass [15] = test: Postemergence herbicidal evaluation, ECHOG; format: in vivo, Echinochloa crus-galli, (L.) Beau; conditions: postemergence spray, rated about two-three weeks after treatment
Outline: as §1

ZEAMX Corn, Field [16] = test: Postemergence herbicidal evaluation, ZEAMX; format: in vivo, Zea mays, L. (Sammel-Bezeichnung); conditions: postemergence spray, rated about two-three weeks after treatment
Outline: as §1

CASOB Sicklepod [17] = test: Postemergence herbicidal evaluation, CASOB; format: in vivo, Cassia obtusifolia, L.; conditions: postemergence spray, rated about two-three weeks after treatment
Outline: as §1

[18] = system: IPOHE Morningglory, Ivyleaf; test: Postemergence herbicidal evaluation, IPOHE; format: in vivo, Ipomoea hederacea, (L.) Jacq.; conditions: postemergence spray, rated about two-three weeks after treatment
Outline: as §1

AMBEL Ragweed, Common [19] = test: Preemergence herbicidal evaluation, AMBEL; format: in vivo, Ambrosia artemisifolia, L.; conditions: preemergence
Outline: as §2

ABUTH Velvetleaf [20] = test: Preemergence herbicidal evaluation, ABUTH; format: in vivo, Abutilon theophrasti, Medic.; conditions: preemergence
Outline: as §2

[21] = system: IPOHE Morningglory, Ivyleaf; test: Preemergence herbicidal evaluation, IPOHE; format: in vivo, Ipomoea hederacea, (L.) Jacq.; conditions: preemergence
Outline: as §2

ECHOG Barnyardgrass [22] = test: Preemergence herbicidal evaluation, ECHOG; format: in vivo, Echinochloa crus-galli, (L.) Beau; conditions: preemergence
Outline: as §2

[23] = system: CHEAL Lambsquarters, Common; test: Postemergence herbicidal evaluation, CHEAL; format: in vivo, Chenopodium album, L.; conditions: postemergence spray, rated about two-three weeks after treatment
Outline: as §1

ORYSAT Rice, Tebonnet [24] = test: Postemergence herbicidal evaluation, ORYSAT; format: in vivo, Oryza sativa, (L.); conditions: postemergence spray, rated about two-three weeks after treatment
Outline: as §1

COC(=O)COc1ccc(C)c(-n2nnc3cc(F)c(-n4c(=O)cc(C(F)(F)F)n(C)c4=O)cc32)c1 [Example 38]
Postemergence herbicidal rating TRZAWR ([1]; 0.008 kg/ha): 3.5
Postemergence herbicidal rating TRZAWR ([1]; 0.016 kg/ha): 4.5
Postemergence herbicidal rating TRZAWR ([1]; 0.032 kg/ha): 6.0
Postemergence herbicidal rating TRZAWR ([1]; 0.062 kg/ha): 8.0
Postemergence herbicidal rating ABUTH (ABUTH Velvetleaf [2]; 0.008 kg/ha): 3.0
Postemergence herbicidal rating ABUTH (ABUTH Velvetleaf [2]; 0.016 kg/ha): 8.0
Postemergence herbicidal rating ABUTH (ABUTH Velvetleaf [2]; 0.032 kg/ha): 9.0
Postemergence herbicidal rating ABUTH (ABUTH Velvetleaf [2]; 0.062 kg/ha): 9.0
Postemergence herbicidal rating GLXMAW (GLXMAW Soybean, Williams [3]; 0.008 kg/ha): 5.5
Postemergence herbicidal rating GLXMAW (GLXMAW Soybean, Williams [3]; 0.016 kg/ha): 5.5
Postemergence herbicidal rating GLXMAW (GLXMAW Soybean, Williams [3]; 0.032 kg/ha): 6.0
Postemergence herbicidal rating GLXMAW (GLXMAW Soybean, Williams [3]; 0.062 kg/ha): 7.5
TRZAWR herbicidal rating ([4]; rate 0.016 kg/ha): 0.0
TRZAWR herbicidal rating ([4]; rate 0.032 kg/ha): 0.0
TRZAWR herbicidal rating ([4]; rate 0.062 kg/ha): 0.0
TRZAWR herbicidal rating ([4]; rate 0.125 kg/ha): 0.0
GALAP herbicidal rating (GALAP Galium [5]; rate 0.016 kg/ha): 0.0
GALAP herbicidal rating (GALAP Galium [5]; rate 0.032 kg/ha): 0.0
GALAP herbicidal rating (GALAP Galium [5]; rate 0.062 kg/ha): 0.0
GALAP herbicidal rating (GALAP Galium [5]; rate 0.125 kg/ha): 0.0
GLXMAW herbicidal rating (GLXMAW Soybean, Williams [6]; rate 0.016 kg/ha): 0.0
GLXMAW herbicidal rating (GLXMAW Soybean, Williams [6]; rate 0.032 kg/ha): 0.0
GLXMAW herbicidal rating (GLXMAW Soybean, Williams [6]; rate 0.062 kg/ha): 0.0
GLXMAW herbicidal rating (GLXMAW Soybean, Williams [6]; rate 0.125 kg/ha): 0.0
ZEAMX herbicidal rating (ZEAMX Corn, Field [7]; rate 0.016 kg/ha): 0.0
ZEAMX herbicidal rating (ZEAMX Corn, Field [7]; rate 0.032 kg/ha): 0.0
ZEAMX herbicidal rating (ZEAMX Corn, Field [7]; rate 0.062 kg/ha): 0.0
ZEAMX herbicidal rating (ZEAMX Corn, Field [7]; rate 0.125 kg/ha): 0.0
CHEAL herbicidal rating ([8]; rate 0.016 kg/ha): 9.0
CHEAL herbicidal rating ([8]; rate 0.032 kg/ha): 9.0
CHEAL herbicidal rating ([8]; rate 0.062 kg/ha): 9.0
CHEAL herbicidal rating ([8]; rate 0.125 kg/ha): 9.0
SETVI herbicidal rating (SETVI Foxtail, Green [9]; rate 0.016 kg/ha): 0.0
SETVI herbicidal rating (SETVI Foxtail, Green [9]; rate 0.032 kg/ha): 0.0
SETVI herbicidal rating (SETVI Foxtail, Green [9]; rate 0.062 kg/ha): 0.0
SETVI herbicidal rating (SETVI Foxtail, Green [9]; rate 0.125 kg/ha): 9.0
ORYSAT herbicidal rating (ORYSAT Rice, Tebonnet [10]; rate 0.016 kg/ha): 0.0
ORYSAT herbicidal rating (ORYSAT Rice, Tebonnet [10]; rate 0.032 kg/ha): 0.0
ORYSAT herbicidal rating (ORYSAT Rice, Tebonnet [10]; rate 0.062 kg/ha): 0.0
ORYSAT herbicidal rating (ORYSAT Rice, Tebonnet [10]; rate 0.125 kg/ha): 0.0
Postemergence herbicidal rating AMBEL (AMBEL Ragweed, Common [11]; 0.008 kg/ha): 2.0
Postemergence herbicidal rating AMBEL (AMBEL Ragweed, Common [11]; 0.016 kg/ha): 7.0
Postemergence herbicidal rating AMBEL (AMBEL Ragweed, Common [11]; 0.032 kg/ha): 7.0
Postemergence herbicidal rating AMBEL (AMBEL Ragweed, Common [11]; 0.062 kg/ha): 9.0
CASOB herbicidal rating (CASOB Sicklepod [12]; rate 0.016 kg/ha): 0.0
CASOB herbicidal rating (CASOB Sicklepod [12]; rate 0.032 kg/ha): 0.0
CASOB herbicidal rating (CASOB Sicklepod [12]; rate 0.062 kg/ha): 0.0
CASOB herbicidal rating (CASOB Sicklepod [12]; rate 0.125 kg/ha): 2.0
Postemergence herbicidal rating GALAP (GALAP Galium [13]; 0.008 kg/ha): 0.0
Postemergence herbicidal rating GALAP (GALAP Galium [13]; 0.016 kg/ha): 0.0
Postemergence herbicidal rating GALAP (GALAP Galium [13]; 0.032 kg/ha): 3.0
Postemergence herbicidal rating GALAP (GALAP Galium [13]; 0.062 kg/ha): 4.0
Postemergence herbicidal rating SETVI (SETVI Foxtail, Green [14]; 0.008 kg/ha): 0.0
Postemergence herbicidal rating SETVI (SETVI Foxtail, Green [14]; 0.016 kg/ha): 0.0
Postemergence herbicidal rating SETVI (SETVI Foxtail, Green [14]; 0.032 kg/ha): 7.0
Postemergence herbicidal rating SETVI (SETVI Foxtail, Green [14]; 0.062 kg/ha): 9.0
Postemergence herbicidal rating ECHCG (ECHOG Barnyardgrass [15]; 0.008 kg/ha): 0.0
Postemergence herbicidal rating ECHCG (ECHOG Barnyardgrass [15]; 0.016 kg/ha): 0.0
Postemergence herbicidal rating ECHCG (ECHOG Barnyardgrass [15]; 0.032 kg/ha): 3.0
Postemergence herbicidal rating ECHCG (ECHOG Barnyardgrass [15]; 0.062 kg/ha): 3.0
Postemergence herbicidal rating ZEAMX (ZEAMX Corn, Field [16]; 0.008 kg/ha): 7.5
Postemergence herbicidal rating ZEAMX (ZEAMX Corn, Field [16]; 0.016 kg/ha): 8.0
Postemergence herbicidal rating ZEAMX (ZEAMX Corn, Field [16]; 0.032 kg/ha): 8.0
Postemergence herbicidal rating ZEAMX (ZEAMX Corn, Field [16]; 0.062 kg/ha): 8.0
Postemergence herbicidal rating CASOB (CASOB Sicklepod [17]; 0.008 kg/ha): 0.0
Postemergence herbicidal rating CASOB (CASOB Sicklepod [17]; 0.016 kg/ha): 0.0
Postemergence herbicidal rating CASOB (CASOB Sicklepod [17]; 0.032 kg/ha): 0.0
Postemergence herbicidal rating CASOB (CASOB Sicklepod [17]; 0.062 kg/ha): 1.0
Postemergence herbicidal rating IPOHE ([18]; 0.008 kg/ha): 5.0
Postemergence herbicidal rating IPOHE ([18]; 0.016 kg/ha): 5.0
Postemergence herbicidal rating IPOHE ([18]; 0.032 kg/ha): 9.0
Postemergence herbicidal rating IPOHE ([18]; 0.062 kg/ha): 9.0
AMBEL herbicidal rating (AMBEL Ragweed, Common [19]; rate 0.016 kg/ha): 0.0
AMBEL herbicidal rating (AMBEL Ragweed, Common [19]; rate 0.032 kg/ha): 0.0
AMBEL herbicidal rating (AMBEL Ragweed, Common [19]; rate 0.062 kg/ha): 0.0
AMBEL herbicidal rating (AMBEL Ragweed, Common [19]; rate 0.125 kg/ha): 9.0
ABUTH herbicidal rating (ABUTH Velvetleaf [20]; rate 0.016 kg/ha): 0.0
ABUTH herbicidal rating (ABUTH Velvetleaf [20]; rate 0.032 kg/ha): 0.0
ABUTH herbicidal rating (ABUTH Velvetleaf [20]; rate 0.062 kg/ha): 2.0
ABUTH herbicidal rating (ABUTH Velvetleaf [20]; rate 0.125 kg/ha): 9.0
IPOHE herbicidal rating ([21]; rate 0.016 kg/ha): 0.0
IPOHE herbicidal rating ([21]; rate 0.032 kg/ha): 0.0
IPOHE herbicidal rating ([21]; rate 0.062 kg/ha): 0.0
ECHCG herbicidal rating (ECHOG Barnyardgrass [22]; rate 0.016 kg/ha): 0.0
ECHCG herbicidal rating (ECHOG Barnyardgrass [22]; rate 0.032 kg/ha): 0.0
ECHCG herbicidal rating (ECHOG Barnyardgrass [22]; rate 0.062 kg/ha): 0.0
ECHCG herbicidal rating (ECHOG Barnyardgrass [22]; rate 0.125 kg/ha): 0.0
Postemergence herbicidal rating CHEAL ([23]; 0.008 kg/ha): 0.0
Postemergence herbicidal rating CHEAL ([23]; 0.016 kg/ha): 0.0
Postemergence herbicidal rating CHEAL ([23]; 0.032 kg/ha): 2.0
Postemergence herbicidal rating CHEAL ([23]; 0.062 kg/ha): 3.0
Postemergence herbicidal rating ORYSAT (ORYSAT Rice, Tebonnet [24]; 0.008 kg/ha): 1.0
Postemergence herbicidal rating ORYSAT (ORYSAT Rice, Tebonnet [24]; 0.016 kg/ha): 2.0
Postemergence herbicidal rating ORYSAT (ORYSAT Rice, Tebonnet [24]; 0.032 kg/ha): 3.5
Postemergence herbicidal rating ORYSAT (ORYSAT Rice, Tebonnet [24]; 0.062 kg/ha): 6.0
